Drawing on patent US11149019B2, “Phenylpyridine derivative and pharmaceutical composition comprising the same” (Daewoong Pharmaceutical Co., Ltd., priority 2017, dated 2021), this text covers IC50 for 22 compounds.

The target of one experiment is T1, BTK (Homo sapiens, UniProt Q06187).
T1 construct: purchased Promega Corporation
Nature of the experiment: ADP-Glo + BTK Kinase enzyme system kit, inhibitory activity against BTK. It is filed as biochemical. The note with it: BTK enzyme 1 ng/ul, ATP 10 μM, 30° C. for 1 hour, luminescence, duplicate. Here is the method: (§1) Inhibitory activities against BTK and ITK were measured for the compounds prepared in the above Examples as follows.
The inhibitory activities against BTK were evaluated using ‘ADP-Glo™+BTK Kinase enzyme system’ kit (Promega Corporation). In a white 96-well plate, 10 ul of BTK enzyme prepared so as to have a final concentration of 1 ng/ul was mixed with 5 μl of compounds having a final concentration of […] the case of evaluating a single concentration of compound and a concentration of 1000, 300, 100, 30, 10, 3, 1, 0.3, 0.1 and 0.03 nM in the case of IC50 evaluation, and then reacted at room temperature for 15 minutes. 5 ul of substrate and 5 ul of ATP prepared so as to have a final concentration of 10 μM were added to the plate on which reactions were completed, and then allowed to react at 30° C. for 1 hour. All wells of the plate were treated with 25 ul of ADP-Glo™ reagent and allowed to react at 30° C. for 40 minutes. After that, all wells were treated with 50 ul of kinase detection buffer, and then reacted at 30° C. for 30 minutes under light shielding conditions. For the plate on which all reactions were completed, luminescence was measured and the results were calculated. Evaluation was carried out in duplicate, and negative control and positive control were calculated depending on whether or not the enzyme was added without treatment of the compound. The IC50 was calculated based on the calculated values.

The target of another experiment is T2, ITK (Homo sapiens, UniProt Q08881).
T2 construct: purchased Promega Corporation
T2 sequence (Q08881 1-620): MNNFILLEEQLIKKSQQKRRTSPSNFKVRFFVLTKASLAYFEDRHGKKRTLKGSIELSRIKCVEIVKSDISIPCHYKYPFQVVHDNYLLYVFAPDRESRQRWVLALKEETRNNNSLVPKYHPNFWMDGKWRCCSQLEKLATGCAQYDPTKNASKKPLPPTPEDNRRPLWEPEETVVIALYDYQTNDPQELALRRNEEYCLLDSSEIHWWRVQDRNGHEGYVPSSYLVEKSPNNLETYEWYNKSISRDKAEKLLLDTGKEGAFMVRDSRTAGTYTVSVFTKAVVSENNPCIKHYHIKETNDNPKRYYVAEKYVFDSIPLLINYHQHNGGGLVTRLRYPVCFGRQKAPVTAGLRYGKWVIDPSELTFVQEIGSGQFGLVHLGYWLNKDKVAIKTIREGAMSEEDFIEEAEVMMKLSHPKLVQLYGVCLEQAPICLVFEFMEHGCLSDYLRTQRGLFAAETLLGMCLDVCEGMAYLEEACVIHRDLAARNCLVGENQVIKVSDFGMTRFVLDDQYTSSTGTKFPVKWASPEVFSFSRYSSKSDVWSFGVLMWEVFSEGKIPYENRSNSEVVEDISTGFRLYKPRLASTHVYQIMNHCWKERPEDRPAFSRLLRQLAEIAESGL
Nature of the experiment: ADP-Glo + ITK Kinase enzyme system kit, inhibitory activity against ITK. It is filed as biochemical. Conditions: ITK enzyme 0.4 ng/ul, ATP final concentration of 25 ul, 30° C. for 1 hour, luminescence, duplicate. Here is the method: as §1
The inhibitory activity against ITK was evaluated using ‘ADP-Glo™+ITK Kinase enzyme system’ kit (Promega Corporation). In a white 96-well plate, 10 ul of ITK enzyme prepared so as to have a final concentration of 0.4 ng/ul was mixed with 5 ul of compounds having a final concentration of 1 uM in the case of evaluating a single concentration of compound and a concentration of 1000, 300, 100, 30, 10, 3, 1, 0.3, 0.1 and 0.03 nM in the case of IC50 evaluation, and then reacted at room temperature for 15 minutes. To the plate on which reactions were completed, 5 ul of substrate and 5 ul of ATP prepared so as to have a final concentration of […] added and then allowed to react at 30° C. for 1 hour. All wells of the plate were treated with 25 ul of ADP-Glo™ reagent and then allowed to react at 30° C. for 40 minutes. After that, all wells were treated with 50 ul of kinase detection buffer, and then allowed to react at 30° C. for 30 minutes under light shielding conditions. For the plate on which all reactions were completed, luminescence was measured and the results were calculated. Evaluation was carried out in duplicate, and negative control and positive control were calculated depending on whether or not the enzyme was added without treatment of the compound. The IC50 was calculated based on the calculated values.

Structures are written as SMILES.

T1 sequence (Q06187 whole entry): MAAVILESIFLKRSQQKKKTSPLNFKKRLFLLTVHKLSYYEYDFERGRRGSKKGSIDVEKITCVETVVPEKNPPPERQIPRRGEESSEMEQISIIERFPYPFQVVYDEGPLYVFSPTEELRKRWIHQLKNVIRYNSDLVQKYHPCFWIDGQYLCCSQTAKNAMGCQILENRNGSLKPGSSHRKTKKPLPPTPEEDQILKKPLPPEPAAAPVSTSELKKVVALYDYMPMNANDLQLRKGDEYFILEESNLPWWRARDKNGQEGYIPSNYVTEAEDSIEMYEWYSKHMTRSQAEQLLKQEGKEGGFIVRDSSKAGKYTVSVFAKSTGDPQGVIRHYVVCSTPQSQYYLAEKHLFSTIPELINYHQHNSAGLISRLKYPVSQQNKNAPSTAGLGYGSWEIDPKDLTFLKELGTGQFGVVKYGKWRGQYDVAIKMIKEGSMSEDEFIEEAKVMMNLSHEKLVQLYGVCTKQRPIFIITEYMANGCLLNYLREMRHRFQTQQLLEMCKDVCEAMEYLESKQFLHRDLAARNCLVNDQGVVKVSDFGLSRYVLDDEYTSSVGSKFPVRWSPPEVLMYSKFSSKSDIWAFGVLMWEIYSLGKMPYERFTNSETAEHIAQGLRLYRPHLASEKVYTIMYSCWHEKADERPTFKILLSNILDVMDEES

On to `C=CC(=O)Nc1cccc(-c2cc(C)cc(Nc3ncc(C)s3)n2)c1` [Compound 26, N-(3-(4-methyl-6-((5-methylthiazol-2-yl)amino)pyridin-2-yl)phenyl)acrylamide], for which the IC50 is 10.5 nM on BTK and 76.4 nM on ITK.

Consider `C=CC(=O)Nc1cccc(-c2cc(CN3CCOCC3)cc(Nc3cc(C4CC4)[nH]n3)n2)c1` [Compound 27, N-(3-(6-((5-cyclopropyl-1H-pyrazol-3-yl)amino)-4-(morpholinomethyl)pyridin-2-yl)phenyl)acrylamide], for which the figures for the IC50 at BTK and on ITK were 68.7 nM and 36.9 nM, respectively.

In the case of `C=CC(=O)Nc1cccc(-c2cc(C(=O)N3CCOCC3)cc(Nc3cc(C4CC4)[nH]n3)n2)c1` [Compound 28, N-(3-(6-(5-cyclopropyl-1H-pyrazol-3-ylamino)-4-(morpholine-4-carbonyl)pyridin-2-yl)phenyl)acrylamide], the IC50 at BTK came out at 310 nM; at ITK, 68.1 nM.

`C=CC(=O)Nc1cccc(-c2cc(C(=O)N3CCOCC3)cc(Nc3ncc(C)s3)n2)c1` [Compound 29, N-(3-(6-((5-methylthiazol-2-yl)amino)-4-(morpholine-4-carbonyl)pyridin-2-yl)phenyl)acrylamide]: the IC50 on BTK was 5.2 nM; at ITK, 18.6 nM.

For the compound `C=CC(=O)Nc1cccc(-c2cc(CN3CCOCC3)cc(Nc3ncc(C)s3)n2)c1` [Compound 30, N (3(6(5-methylthiazol-2-ylamino)-4-(morpholinomethyl)pyridin-2-yl)phenyl)acrylamide], the IC50 was 3.1 nM at BTK and 4.3 nM on ITK.

On to `C=CC(=O)Nc1cccc(-c2cc(C(=O)N3CCOCC3)cc(Nc3cc(C)[nH]n3)n2)c1` [Compound 31, N-(3-(6-((5-methyl-1H-pyrazol-3-yl)amino)-4-(morpholine-4-carbonyl)pyridin-2-yl)phenyl)acrylamide], for which the results for the IC50 on BTK and on ITK were 17.6 nM and 56.9 nM, respectively.

On to `C=CC(=O)Nc1cccc(-c2cc(CN3CCOCC3)cc(Nc3ncc(C(=O)Nc4c(C)cccc4Cl)s3)n2)c1` [Compound 33, 2-((6-(3-acrylamidophenyl)-4-(morpholinomethyl)pyridin-2-yl)amino)-N-(2-chloro-6-methylphenyl)thiazole-5-carboxamide], for which the IC50 at BTK was 1.9 nM; at ITK, greater than 1000 nM.

With `C=CC(=O)Nc1cccc(-c2cc(CN3CC(C)OC(C)C3)cc(Nc3ncc(C)s3)n2)c1` (centres unmarked) [Compound 34], the IC50 amounted to 2.4 nM on BTK and 3.1 nM at ITK.

For the compound `C=CC(=O)Nc1cccc(-c2cc(N(C)C)cc(Nc3ncc(C)s3)n2)c1` [Compound 35, N-(3-(4-(dimethylamino)-6-((5-methylthiazol-2-yl)amino)pyridin-2-yl)phenyl)acrylamide], the IC50 at BTK was greater than 400 nM; on ITK, greater than 1000 nM.

Take `C=CC(=O)Nc1cccc(-c2cc(N3CCOCC3)cc(Nc3ncc(C)s3)n2)c1` [Compound 36, N-(3-(6-((5-methylthiazol-2-yl)amino)-4-morpholinopyridin-2-yl)phenyl)acrylamide]: the figures for the concentration for half-maximal inhibition (IC50) on BTK and on ITK were greater than 100 nM and 394 nM, respectively.

As to `C=CC(=O)Nc1cccc(-c2cc(CN3CCN(C)CC3)cc(Nc3ncc(C)s3)n2)c1` [Compound 37, N-(3-(4-((4-methylpiperazin-1-yl)methyl)-6-(5-methylthiazol-2-ylamino)pyridin-2-yl)phenyl)acrylamide], the IC50 was found to be 0.9 nM on BTK and 5.5 nM at ITK.

With `C/C=C/C(=O)Nc1cccc(-c2cc(Cc3ccccc3)cc(Nc3cc(C)[nH]n3)n2)c1` [Compound 38, (E)-N-(3-(4-benzyl-6-(5-methyl-1H-pyrazol-3-ylamino)pyridin-2-yl)phenyl)but-2-enamide], the figures for the IC50 at BTK and on ITK were greater than 400 nM and 536 nM, respectively.

`C=CC(=O)Nc1cccc(-c2cc(CN3CCOCC3)cc(Nc3nnc(C)s3)n2)c1` [Compound 39, N-(3-(6-(5-methyl-1,3,4-thiadiazol-2-ylamino)-4-(morpholinomethyl)pyridin-2-yl)phenyl)acrylamide]: the results for the IC50 at BTK and on ITK were 252 nM and greater than 1000 nM, respectively.

For the compound `C=CC(=O)Nc1cccc(-c2cc(CN3CCOCC3)cc(Nc3cc(C)on3)n2)c1` [Compound 40, N-(3-(6-((5-methylisoxazol-3-ylamino)-4-(morpholino)methyl)pyridin-2-yl)phenyl)acrylamide], the IC50 on BTK is greater than 400 nM; on ITK, greater than 1000 nM.

On to `C=CC(=O)Nc1cccc(-c2cc(CN3CCOCC3)cc(Nc3nnc(C)o3)n2)c1` [Compound 41, N-(3-(6-((5-methyl-1,3,4-oxadiazol-2-yl)amino)-4-(morpholinomethyl)pyridin-2-yl)phenyl)acrylamide], for which the IC50 at BTK was greater than 400 nM; on ITK it was greater than 1000 nM.

For `C=CC(=O)Nc1cccc(-c2cc(CN3CCOCC3)cc(NC(=O)C3CC3)n2)c1` [Compound 42, N-(6-(3-acrylamidophenyl)-4-(morpholinomethyl)pyridin-2-yl)cyclopropanecarboxamide], the IC50 was greater than 400 nM on BTK and greater than 1000 nM at ITK.

Turning to `C=CC(=O)Nc1cccc(-c2cc(CN3CCN(CCO)CC3)cc(Nc3ncc(C)s3)n2)c1` [Compound 43, N-(3-(4-((4-(2-hydroxyethyl)piperazin-1-yl)methyl)-6-(5-methylthiazol-2-ylamino)pyridin-2-yl)phenyl)acrylamide], the figures for the IC50 at BTK and at ITK were 2.3 nM and 2.1 nM, respectively.

Consider `C=CC(=O)Nc1cccc(-c2cc(CN3CCOCC3)cc(Nc3ncns3)n2)c1` [Compound 44, N-(3-(6-((1,2,4-thiadiazol-5-yl)amino)-4-(morpholinomethyl)pyridin-2-yl)phenyl)acrylamide], for which the IC50 was found to be 2 nM at BTK and 12 nM on ITK.

As for `C=CC(=O)Nc1cccc(-c2cc(CN3CCN(C4CC4)CC3)cc(Nc3ncc(C)s3)n2)c1` [Compound 45, N-(3-(4-((4-cyclopropylpiperazin-1-yl)methyl)-6-((5-methylthiazol-2-yl)amino)pyridin-2-yl)phenyl)acrylamide], the results for the IC50 at BTK and at ITK were 3 nM and 2.1 nM, respectively.

On to `C=CC(=O)Nc1cccc(-c2cc(CN3C[C@@H](C)O[C@@H](C)C3)cc(Nc3ncc(C)s3)n2)c1` [Compound 46, N-(3-(4-(((2S,6R)-2,6-dimethylmorpholino)methyl)-6-(5-methylthiazol-2-ylamino)pyridin-2-yl)phenyl)acrylamide], for which the IC50 was 1.7 nM on BTK and 1.6 nM at ITK.

Regarding `C=CC(=O)Nc1cccc(-c2cc(CN3CCCC3)cc(Nc3ncc(C)s3)n2)c1` [Compound 47, N-(3-(6-((5-methylthiazol-2-yl)amino)-4-(pyrrolidin-1-ylmethyl)pyridin-2-yl)phenyl)acrylamide], the values for the IC50 at BTK and at ITK were 3 nM and 8.2 nM, respectively.

In the case of `C=CC(=O)Nc1cccc(-c2cc(CN3CCN(CCC)CC3)cc(Nc3ncc(C)s3)n2)c1` [Compound 48, N-(3-(6-((5-methylthiazol-2-yl)amino)-4-((4-propylpiperazin-1-yl)methyl)pyridin-2-yl)phenyl)acrylamide], the figures for the IC50 at BTK and at ITK were 1.1 nM and 4.3 nM, respectively.
